# Results: PMC9466626, “Discovery of new 1H-pyrazolo[3,4-d]pyrimidine derivatives as anticancer agents targeting EGFR^WT and EGFR^T790M” (Journal of Enzyme Inhibition and Medicinal Chemistry, 2022)
# System: A549 cells
# Experiment: Cell cycle analysis (flow cytometry, PI staining)
# Assay type: cell-based, human
# Method: The effect of compound 12b on cell cycle distribution was performed using the propidium iodide (PI) staining technique as described in Supplementary data[56–58]. […]
# 4.1.2. In-vitro DNA-Flow cytometric (cell cycle) analysis.
# h. Then, the tested cells were collected by trypsinization and washed in PBS. Ice-cold absolute
# ethanol was used for fixation of the collected cells. The cells were stained with Cycle TESTTM
# PLUS DNA Reagent Kit (BD Biosciences, San Jose, CA) according to the manufacturer's
# instructions. Cell-cycle distribution was evaluated using a flow cytometer. […]
# [1] = A549, 8.21 µM, 48 h, mean ± SEM
# [2] = A549, 8.21 µM, 48 h, mean ± SEM, listed as 12 b
smiles,measurement,setting,value
"CC(=NNc1nc(Nc2ccccc2)nc2c1cnn2-c1ccccc1)c1ccc(Cl)cc1 [Compound 12b, 4–(2-(1–(4-Chlorophenyl)ethylidene)hydrazinyl)-N,1-diphenyl-1H-pyrazolo[3,4-d]pyrimidin-6-amine]","cell cycle arrest, phases",A549,S and G2/M phases
same,Cell cycle distribution % G2/M,[1],28.55%
same,Cell cycle distribution %G1,[1],28.04%
same,Cell cycle distribution %S,[1],42.39%
same,Cell cycle distribution %Sub-G1,[1],0.89 ± 0.31%
same,Cell cycle distribution % G2/M,[2],28.55 ± 1.61 %
same,Cell cycle distribution %G1,[2],28.04 ± 2.78 %
same,Cell cycle distribution %S,[2],42.39 ± 3.50 %
same,fold decrease in percentage of cells in G1 phase,"vs untreated A549, 48 h",~2 fold
same,fold increase in % G2/M,"vs untreated A549, 48 h",1.7 fold
same,fold increase in percentage of cells in S phase,"vs untreated A549, 48 h",1.5 fold
